Test results as given in patent publication US20070265451A1, “Process for the preparation of oxazolidinones and method of use thereof” (Board of Trustees of Michigan State University, priority 2001, published 2007).
≈ marks a conversion by molar mass, not a printed value. One block for each compound: values may come before it.

Assays:
Type in all cases: cell-based
[1] = test system: Enterococcus faecalis 29212; assay: Broth microdilution MIC, Enterococcus faecalis ATCC 29212; details: for MIC / MIC90: Enterococcus faecalis; for MIC: ATCC29212, Table 2, read-out: MIC(90-100) EF-ATCC 29212; for MIC90: ATCC29213, Table 1, read-out: MIC90-100 EF ATCC 29213
[2] = test system: Staphylococcus aureus 29213; assay: Broth microdilution MIC, Staphylococcus aureus ATCC 29213; details: Staphylococcus aureus; for MIC: ATCC29213, Table 2, read-out: MIC(90-100) SA-ATCC 29213; for MIC90: ATCC29212, Table 1, SA, strain ATCC 29212, read-out: MIC90-100 SA ATCC 29212
Excerpt: (§1) See, NCCLS document M7-A5. Methods for Dilution Antimicrobial Susceptibility Tests for Bacteria That Grow Aerobically; Approved Standard-Fifth Edition. Volume 20, Number 2. January 2000, (ISBN 1-56238-394-9) and Lorian V. Antibiotics. Laboratory Medicine. 4th ed. Baltimore: Williams and Wilkins, pp. 52-111 (1996). For subsequent testing, the following strains have been used: Staphylococcus aureus NRS4 (992; HIP5836; New Jersey) (Smith et al., New Engl. J. Med. 340: 493-501 (1999); Tenover et al., J. Clin. Microbiol. 36: 1020-1027 (1998)), Staphylococcus aureus NRS3 (963sm; HIP5827; Michigan) (Smith et al., ibid.; Tenover et al., ibid.), Staphylococcus aureus NRS103 (Becker) (Karakawa and Vann, Sem. Infect. Dis. 4: 285 (1982), Staphylococcus aureus NRS102 (Reynolds) Karakawa and Vann, ibid; McMurray et al., JID 162: 759-762 (1990)), Staphylococcus epidermidis NRS101 (ATCC 35984), Streptococcus pneumoniae (ATCC 49619), Enterococcus faecalis (ATCC 51299), and Staphylococcus aureus (ATCC 43300.
(§2) Stock cultures of these strains were obtained by seeding colonies from overnight streak plates (Tryptic Soy Agar II (TSAII) and 5% sheep's blood (SB) agar plates: Becton Dickinson, CA#2211261) into sterile Mueller-Hinton Broth (MHB)(Becton Dickinson, CA#211443) and growing the suspensions to mid-late log phase in 13 mL screw-cap tubes. Glycerol (Sigma, CA#G-6279) was sterilized by autoclaving for 15 minutes at 121° C. in 6 mL volumes, and then stored at 2-8° C. This was diluted to 20% in dH2O, and then added 1:1 (250 μL:250 μL, 10% final glycerol concentration) to the logarithmically growing bacterial suspension of each strain. Tubes were frozen and stored at −70° C. Purity of the stock cultures was tested by thawing one tube of each strain in a water bath at 37° C. and plating them on TSAII with 5% SB. Plates were incubated overnight at 37° C. and colonies were examined for morphology. Growth curves and approximate CFU/mL were also obtained.
(§3) High purity substituted oxazolidinones prepared according to the method of the present invention and a ZYVOX standard (ZYVOX is a trade name for linezolid available from Pharmacia Corporation) were provided by Synthon Corporation, Monmouth Junction, N.J. Compounds were dissolved at 10 mg/mL in DMSO, as after a dilution of approx. 39.0 to reach the desired final starting concentration of 256 ug/ml, the concentration of DMSO is approximately 2.5%. Compounds were then stored at room temperature (25° C.) in the dark.
(§4) Antimicrobial susceptibility screening was as follows. All compounds were initially screened for activity in duplicate at 256 μg/mL (2.5% DMSO), including ZYVOX, the positive control for antimicrobial activity. A single well of bacterially inoculated 2.5% DMSO served as a positive control for bacterial growth, while a well of DMSO inoculated with of 50 μL of sterile 0.9% saline served as a negative growth control. Controls were prepared on every microplate, so that 46 was the maximum number of compounds that were screened per plate. Broth was pipetted into sterile microcentrifuge tubes, to which the compounds were then added (1:19.53 dilution or 2× final concentration). Each tube was vortexed, and 50 μL was immediately transferred to the microplate wells for each strain. Solubility was assessed by visual observation. MB (medium broth solubility) was recorded if the solution appeared only slightly cloudy. LB (low broth solubility) was recorded if the solution was extremely cloudy, and especially if larger, clumpy precipitates formed. Bacteria were grown as described above, although absorbance was measured at 650 nm and bacteria were diluted to an initial OD of 0.12-0.15. Bacteria were then further diluted 1:100 with 0.9% sterile saline. Within 15 minutes of this final dilution, 50 μL of this suspension was added to each well for a final volume of […], and a final bacterial concentration of 1×10^5 CFU/mL (except for the negative control well). Plates were grown as above and all observations were recorded. […]

[3] = test system: Staphylococcus aureus NRS103 (Becker); assay: Broth microdilution MIC, Ref SA Becker; details: strain Becker, read-out: MIC90-100 Ref SA Becker
Excerpt: as §1, §2, §3, §4

[4] = test system: Erythroid bone marrow cells; assay: Bone marrow cell growth inhibition, erythroid
Excerpt: (§5) In general, many of the substituted oxazolidinones were as effective as ZYVOX.

[5] = test system: Staphylococcus aureus NRS102 (Reynolds); assay: Broth microdilution MIC, Pen. R SA Reynolds; details: strain Reynolds, read-out: MIC90-100 Pen. R SA Reynolds
Excerpt: as §1, §2, §3, §4

[6] = test system: Staphylococcus aureus NRS3 (963sm; HIP5827; Michigan); assay: Broth microdilution MIC, MR SA Michigan; details: strain Michigan; for MIC90: Staphylococcus aureus, NRS3, methicillin resistant SA, read-out: MIC90-100 MR SA Michigan
Excerpt: as §1, §2, §3, §4

[7] = test system: Megakaryocytic bone marrow cells; assay: Bone marrow cell growth inhibition, megakaryocytic
Excerpt: as §5

[8] = test system: Staphylococcus aureus NRS4 (992; HIP5836; New Jersey); assay: Broth microdilution MIC, MR SA New Jersey; details: strain New Jersey; for MIC90: Staphylococcus aureus, NRS4, methicillin resistant SA, read-out: MIC90-100 MR SA New Jersey
Excerpt: as §1, §2, §3, §4

[9] = test system: Myeloid bone marrow cells; assay: Bone marrow cell growth inhibition, myeloid
Excerpt: as §5

[10] = test system: Staphylococcus aureus (ATCC 43300); assay: Broth microdilution MIC, MR SA ATCC 43300; details: ATCC43300, methicillin resistant SA, read-out: MIC90-100 MR SA ATCC 43300
Excerpt: as §1, §2, §3, §4

[11] = test system: Enterococcus faecalis (ATCC 51299); assay: Broth microdilution MIC, Enterococcus faecalis ATCC 51299; details: ATCC51299, read-out: MIC90-100 VS EF ATCC 51299
Excerpt: as §1, §2, §3, §4

- MIC [1]: 64 µg/mL (≈ 163 µM)
- MIC [2]: 256 µg/mL (≈ 651 µM)
SMILES: CN(C)C(=O)/C=C/N1C[C@@H](COC(=O)c2cc(Cl)sc2Cl)OC1=O [Compound 1629]

- MIC [1]: 16 µg/mL (≈ 39.9 µM)
- MIC [2]: 16 µg/mL (≈ 39.9 µM)
SMILES: CN(C)C(=O)/C=C/N1C[C@@H](COC(=O)c2csc(-c3ccccc3)n2)OC1=O [Compound 1631]

- MIC [1]: 64 µg/mL (≈ 160 µM)
- MIC [2]: 16 µg/mL (≈ 40.1 µM)
SMILES: CN(C)C(=O)/C=C/N1C[C@@H](COS(=O)(=O)c2ccc([N+](=O)[O-])cc2)OC1=O [Compound 1632]

- MIC90 [3]: 3 µg/mL (≈ 10.6 µM)
- MIC90 ([1]; EF, strain printed ATCC 29213): 2 µg/mL (≈ 7.06 µM)
- IC50 [4]: 0.01 µg/mL (≈ 0.0353 µM)
- MIC90 [5]: 3 µg/mL (≈ 10.6 µM)
- MIC90 [6]: 2 µg/mL (≈ 7.06 µM)
- IC50 [7]: 6 µg/mL (≈ 21.2 µM)
- MIC90 [8]: 2 µg/mL (≈ 7.06 µM)
- MIC90 [2]: 2 µg/mL (≈ 7.06 µM)
- IC50 [9]: 20 µg/mL (≈ 70.6 µM)
SMILES: CN1C[C@@H](CNSc2ccc([N+](=O)[O-])cc2)OC1=O [Compound 1687]

SMILES: O=C1O[C@@H](COSc2ccc([N+](=O)[O-])cc2)CN1c1ccc([N+](=O)[O-])cc1 [Compound 1808]
- MIC90 [10]: 8 µg/mL (≈ 20.4 µM)
- MIC90 [3]: 16 µg/mL (≈ 40.9 µM)
- MIC [1]: 2 µg/mL (≈ 5.11 µM)
- MIC90 ([1]; EF, strain printed ATCC 29213): 2 µg/mL (≈ 5.11 µM)
- MIC90 [5]: 16 µg/mL (≈ 40.9 µM)
- MIC90 [6]: 3 µg/mL (≈ 7.67 µM)
- MIC90 [8]: 4 µg/mL (≈ 10.2 µM)
- MIC90 [11]: 2 µg/mL (≈ 5.11 µM)
- MIC90 [2]: 4 to 8 µg/mL (≈ 10.2 to 20.4 µM)
- MIC [2]: 8 µg/mL (≈ 20.4 µM)

- MIC [1]: 8 µg/mL (≈ 21 µM)
- MIC [2]: 32 µg/mL (≈ 84.1 µM)
SMILES: O=C1O[C@@H](COc2cccc3c(O)cccc23)CN1c1ccc([N+](=O)[O-])cc1 [Compound 1960]

- MIC [1]: 8 µg/mL (≈ 19.5 µM)
- MIC [2]: 32 µg/mL (≈ 78.2 µM)
SMILES: O=C1O[C@@H](COc2ccc3c4c2CCCN4CCC3)CN1c1ccc([N+](=O)[O-])cc1 [Compound 1965]

- MIC [1]: 124 µg/mL (≈ 410 µM)
- MIC [2]: 8 µg/mL (≈ 26.5 µM)
SMILES: O=C1NCC(COS(=O)(=O)c2ccc([N+](=O)[O-])cc2)O1 (stereo not shown) [Compound 1985]

- MIC [1]: 64 µg/mL (≈ 190 µM)
- MIC [2]: 16 µg/mL (≈ 47.5 µM)
SMILES: O=C1NCC(COS(=O)(=O)c2ccc(Cl)cc2[N+](=O)[O-])O1 (stereo not shown) [Compound 1998]

SMILES: O=C1OC(COSc2ccc([N+](=O)[O-])cc2)CN1Cc1ccc([N+](=O)[O-])cc1 (stereo not shown) [Compound 2017]
- MIC [1]: 8 µg/mL (≈ 19.7 µM)
- MIC [2]: 16 µg/mL (≈ 39.5 µM)

- MIC [1]: 32 µg/mL (≈ 72.8 µM)
- MIC [2]: 16 µg/mL (≈ 36.4 µM)
SMILES: O=C1OC(COSc2ccc([N+](=O)[O-])cc2)CN1Cc1ccc(Br)cc1 (stereo not shown) [Compound 2019]

- MIC [1]: 124 µg/mL (≈ 275 µM)
- MIC [2]: 64 µg/mL (≈ 142 µM)
SMILES: O=C(OCC1CN(Cc2ccc(Br)cc2)C(=O)O1)Oc1ccc([N+](=O)[O-])cc1 (stereo not shown) [Compound 2020]

- MIC [1]: 32 µg/mL (≈ 94.6 µM)
- MIC [2]: 64 µg/mL (≈ 189 µM)
SMILES: CC(=O)/C=C/N1CC(COSc2ccc([N+](=O)[O-])cc2)OC1=O (stereo not shown) [Compound 2023]

- MIC [1]: 32 µg/mL (≈ 86.9 µM)
- MIC [2]: 64 µg/mL (≈ 174 µM)
SMILES: CCOC(=O)/C=C/N1CC(COSc2ccc([N+](=O)[O-])cc2)OC1=O (stereo not shown) [Compound 2025]

SMILES: O=C1O[C@H](CNSc2ccc([N+](=O)[O-])cc2)CN1c1ccc([N+](=O)[O-])cc1 [Compound 2278]
- MIC90 [3]: 8 µg/mL (≈ 20.5 µM)
- MIC90 ([1]; EF, strain printed ATCC 29213): 2 µg/mL (≈ 5.12 µM)
- MIC90 [5]: 8 µg/mL (≈ 20.5 µM)
- MIC90 [6]: 4 µg/mL (≈ 10.2 µM)
- MIC90 [8]: 4 µg/mL (≈ 10.2 µM)
- MIC90 [2]: 4 µg/mL (≈ 10.2 µM)

- MIC90 [3]: 4 µg/mL (≈ 12.1 µM)
- MIC90-100 EF ATCC 29213 ([1]; Table 1, EF, strain printed ATCC 29213): 2 µg/mL (≈ 6.05 µM)
- MIC90 [5]: 8 µg/mL (≈ 24.2 µM)
- MIC90-100 MR SA Michigan ([6]; methicillin resistant SA): 2 µg/mL (≈ 6.05 µM)
- MIC90-100 MR SA New Jersey ([8]; methicillin resistant SA): 4 µg/mL (≈ 12.1 µM)
- MIC90 [2]: 2 µg/mL (≈ 6.05 µM)
SMILES: CCN1C[C@@H](COS(=O)(=O)c2ccc([N+](=O)[O-])cc2)OC1=O [Compound 2405]

- MIC90 [3]: 16 µg/mL (≈ 51.4 µM)
- MIC90 ([1]; EF, strain printed ATCC 29213): 4 µg/mL (≈ 12.8 µM)
- MIC90 [5]: 32 µg/mL (≈ 103 µM)
- MIC90 [6]: 4 to 8 µg/mL (≈ 12.8 to 25.7 µM)
- MIC90 [8]: 4 to 8 µg/mL (≈ 12.8 to 25.7 µM)
- MIC90 [2]: 4 µg/mL (≈ 12.8 µM)
SMILES: CC(C)N1C[C@H](CNSc2ccc([N+](=O)[O-])cc2)OC1=O [Compound 2428]
